These results are taken from patent US20050196385A1, “Methods for producing gamma delta t cells” (Innate Pharama, priority 2002, published 2005).

The assay has as its system gamma 9 delta 2 T cells. Nature of the assay: TNF release test after BrHPP stimulation. The format is cell-based, human. Particulars: for TNF alpha production (pg/ml) on 25,000 cells: 3 μM BrHPP, 24 hours, day 21; for Pg/ml of alpha TNF produced by 25 000 cells: cells formulated in HSA 4%, triplicate means. As to the method:
Different tests were carried out on the cells obtained to evaluate their functional activity. In particular, said tests concerned the cytotoxic activity of the cells and their production of TNF. • Cytotoxicity test. For this test, the target cells were isotopically labelled with ^51Cr (10 μl of ^51Cr/1 million target cells in 24-well plates), then incubated for 1 hour at 37° C. The cells were distributed (in duplicate) at a rate of 3000 cells per well in RPMI/10% FCS (50 μl), and spontaneous and maximum release of ^51Cr were determined. Effector cells (gamma delta T cells of the invention) were then added (50 μl in RPMI/10% FCS) to each target, at the following effector/target (E/T) ratios: 30/1, 3/1, 0.3/1, and incubated for 3 to 4 hours at 37° C. Cytotoxic activity (lysis of target cells) was determined by measuring the released radioactivity on 25 μl of supernatant in a β plate counter. • TNF release test. Cells were washed twice in RPMI then cultured in 96-well plates in RPMI/10% FCS in the presence of 3 μM BrHPP for 24 hours. TNF was assayed in the supernatant using the Beckman Coulter Kit Immunotech, ref. IM 11121. IC—Results Choice of Medium
The formulated cell product was tested for functionality by the TNF release test at different time points to evaluate its stability.

In the case of `CC(O)(CBr)CCOP(=O)(O)OP(=O)(O)O` (stereo not shown) [BrHPP, 3-(bromomethyl)-3-butanol-1-yl-diphosphate], the “TNF alpha production (pg/ml) on 25,000 cells” value was 1332.7 pg/mL (cells of donor D623 from fresh MNC); 1442.36 pg/mL (cells of donor D623 from frozen MNC); 903.3 pg/mL (cells of donor D711 from fresh MNC); 1336.16 pg/mL (cells of donor D711 from frozen MNC); 782.08 pg/mL (cells of donor D762 from fresh MNC); 973.7 pg/mL (cells of donor D762 from frozen MNC). Besides, the “Pg/ml of alpha TNF produced by 25 000 cells” value was found to be 381.358 pg/mL (T = 2 h after formulation), 359.624 pg/mL (T = 4 h after formulation), 327.31 pg/mL (T = 8 h after formulation) and 127.56 pg/mL (T = 22 h after formulation).
